Consider 19 compounds from ChEMBL document CHEMBL3352703, “Sulfamates of methyl triterpenoates are effective and competitive inhibitors of carbonic anhydrase II” (Eur J Med Chem, 2014).

The target in one experiment is Carbonic anhydrase 2 (Bos taurus, UniProt P00921). Kind of experiment: Inhibition of bovine erythrocyte carbonic anhydrase 2 using 4-nitrophenyl acetate substrate by photometric assay.
Experiment [1] in a line: Cytotoxicity against mouse NIH/3T3 cells after 96 hrs by SRB assay. The class given is cell-based. As to conditions: NIH3T3, 96 h. For orientation: The SRB assay estimates cell density from bound dye.

Sequence of Carbonic anhydrase 2 (P00921 whole entry): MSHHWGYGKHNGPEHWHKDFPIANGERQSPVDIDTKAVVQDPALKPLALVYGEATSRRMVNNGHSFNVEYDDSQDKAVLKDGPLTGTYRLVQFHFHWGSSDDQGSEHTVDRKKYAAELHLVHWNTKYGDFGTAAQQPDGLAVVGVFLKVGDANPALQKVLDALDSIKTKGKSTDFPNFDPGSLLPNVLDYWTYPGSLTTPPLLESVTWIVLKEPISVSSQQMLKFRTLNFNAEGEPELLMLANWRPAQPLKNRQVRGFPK

`COC(=O)[C@@]1(C)CC[C@]2(C)CC[C@]3(C)C(=CC(=O)[C@@H]4[C@@]5(C)CC[C@H](O)C(C)(C)[C@@H]5CC[C@]43C)[C@@H]2C1`: the Ki (commonly a measure of affinity in units of concentration, obtained from inhibition or displacement) at Carbonic anhydrase 2 is over 10 µM.

The compound `COC(=O)[C@@]1(C)CC[C@]2(C)CC[C@]3(C)C(=CC[C@@H]4[C@@]5(C)CC[C@H](O)C(C)(C)[C@@H]5CC[C@]43C)[C@@H]2C1` returned a Ki at Carbonic anhydrase 2 of over 10 µM.

For the compound `COC(=O)[C@]12CCC(C)(C)C[C@H]1C1=CC(=O)[C@@H]3[C@@]4(C)CC[C@H](O)C(C)(C)[C@@H]4CC[C@@]3(C)[C@]1(C)CC2`, at Carbonic anhydrase 2, the Ki is over 50 µM.

In the case of `COC(=O)[C@]12CC[C@@H](C(C)=O)[C@@H]1[C@H]1CC[C@@H]3[C@@]4(C)CC[C@H](O)C(C)(C)[C@@H]4CC[C@@]3(C)[C@]1(C)CC2`, on Carbonic anhydrase 2, the inhibitory constant (Ki) was over 5 µM.

At Carbonic anhydrase 2, `COC(=O)[C@]12CC[C@@H](C)[C@H](C)[C@H]1C1=CC(=O)[C@@H]3[C@@]4(C)CC[C@H](O)C(C)(C)[C@@H]4CC[C@@]3(C)[C@]1(C)CC2` had a Ki of over 50 µM.

`COC(=O)[C@]12CCC(C)(C)C[C@H]1C1=CC[C@@H]3[C@@]4(C)CC[C@H](OS(N)(=O)=O)C(C)(C)[C@@H]4CC[C@@]3(C)[C@]1(C)CC2`: the Ki on Carbonic anhydrase 2 came to 0.308 µM. For the same compound, half-maximal inhibition in experiment [1] (IC50) was put at 12.8 µM.

On Carbonic anhydrase 2, `COC(=O)[C@]12CC[C@@H](C)[C@H](C)[C@H]1C1=CC[C@@H]3[C@@]4(C)CC[C@H](OS(N)(=O)=O)C(C)(C)[C@@H]4CC[C@@]3(C)[C@]1(C)CC2` returned a Ki of 1.11 µM. Besides, in experiment [1], half-maximal inhibition (IC50) was put at 22.8 µM.

`C=C(C)[C@@H]1CC[C@]2(C(=O)OC)CC[C@]3(C)[C@H](CC[C@@H]4[C@@]5(C)CC[C@H](OS(N)(=O)=O)C(C)(C)[C@@H]5CC[C@]43C)[C@@H]12` registered a Ki on Carbonic anhydrase 2 of 2.16 µM. Besides, the IC50 (in general, the midpoint of a concentration-inhibition curve) in experiment [1] came to 9.8 µM.

Consider `COC(=O)[C@@]1(C)CC[C@]2(C)CC[C@]3(C)C(=CC(=O)[C@@H]4[C@@]5(C)CC[C@H](OS(N)(=O)=O)C(C)(C)[C@@H]5CC[C@]43C)[C@@H]2C1`, for which the affinity on Carbonic anhydrase 2, expressed as Ki, was 1.51 µM. The IC50 in experiment [1] was over 30 µM.

`COC(=O)[C@@]1(C)CC[C@]2(C)CC[C@]3(C)C(=CC[C@@H]4[C@@]5(C)CC[C@H](OS(N)(=O)=O)C(C)(C)[C@@H]5CC[C@]43C)[C@@H]2C1` displayed a Ki at Carbonic anhydrase 2 of over 4 µM. This compound also returned an IC50 in experiment [1] of over 30 µM.

As for `COC(=O)[C@]12CC[C@@H](C(C)=O)[C@@H]1[C@H]1CC[C@@H]3[C@@]4(C)CC[C@H](OS(N)(=O)=O)C(C)(C)[C@@H]4CC[C@@]3(C)[C@]1(C)CC2`, the Ki at Carbonic anhydrase 2 worked out at 1.74 µM. This compound also displayed an IC50 in experiment [1] of over 30 µM.

`COC(=O)[C@]12CCC(C)(C)C[C@H]1C1=CC[C@@H]3[C@@]4(C)C[C@@H](OS(N)(=O)=O)[C@H](O)C(C)(C)[C@@H]4CC[C@@]3(C)[C@]1(C)CC2` had a Ki on Carbonic anhydrase 2 of over 20 µM. In experiment [1], this compound returned an IC50 of 12.6 µM.

As for `COC(=O)[C@]12CCC(C)(C)C[C@H]1C1=CC[C@@H]3[C@@]4(C)C[C@@H](O)[C@H](OS(N)(=O)=O)C(C)(C)[C@@H]4CC[C@@]3(C)[C@]1(C)CC2`, on Carbonic anhydrase 2, the affinity, expressed as Ki, was 1.41 µM. In addition, the midpoint of inhibition in experiment [1], the IC50, lay at 2.2 µM.

For `COC(=O)[C@]12CCC(C)(C)C[C@H]1C1=CC(=O)[C@@H]3[C@@]4(C)CC[C@H](OS(N)(=O)=O)C(C)(C)[C@@H]4CC[C@@]3(C)[C@]1(C)CC2`, on Carbonic anhydrase 2, the Ki came to 1.49 µM. 25.9 µM corresponded to half-maximal inhibition in experiment [1] (IC50).

Consider `COC(=O)[C@]12CC[C@@H](C)[C@H](C)[C@H]1C1=CC(=O)[C@@H]3[C@@]4(C)CC[C@H](OS(N)(=O)=O)C(C)(C)[C@@H]4CC[C@@]3(C)[C@]1(C)CC2`, for which, at Carbonic anhydrase 2, the Ki is over 15 µM. This compound also came in with an IC50 in experiment [1] of 25.9 µM.

For `COC(=O)[C@]12CCC(C)(C)C[C@H]1C1=CC[C@@H]3[C@@]4(C)C[C@@H](O)[C@H](O)C(C)(C)[C@@H]4CC[C@@]3(C)[C@]1(C)CC2` [MASLINIC ACID METHYL ESTER], at Carbonic anhydrase 2, the Ki is over 25 µM.

The compound `C=C(C)[C@@H]1CC[C@]2(C(=O)OC)CC[C@]3(C)[C@H](CC[C@@H]4[C@@]5(C)CC[C@H](O)C(C)(C)[C@@H]5CC[C@]43C)[C@@H]12` [METHYL BETULINATE] registered a Ki on Carbonic anhydrase 2 of over 50 µM.

The compound `COC(=O)[C@]12CCC(C)(C)C[C@H]1C1=CC[C@@H]3[C@@]4(C)CC[C@H](O)C(C)(C)[C@@H]4CC[C@@]3(C)[C@]1(C)CC2` [METHYL OLEANOLATE] showed a Ki on Carbonic anhydrase 2 of over 10 µM.

On Carbonic anhydrase 2, `COC(=O)[C@]12CC[C@@H](C)[C@H](C)[C@H]1C1=CC[C@@H]3[C@@]4(C)CC[C@H](O)C(C)(C)[C@@H]4CC[C@@]3(C)[C@]1(C)CC2` [METHYL URSOLATE] yielded a Ki of over 10 µM.
